According to PMC10571957, “αV-Integrin-Dependent Inhibition of Glioblastoma Cell Migration, Invasion and Vasculogenic Mimicry by the uPAcyclin Decapeptide” (Cancers, 2023):
“And” between values parts separate entries of the source, which are not always exact repeats. Equal entries are not always repeated.

Legend:
C6 cells = experiment: Vasculogenic mimicry (tube formation on Geltrex), C6; format: cell-based, rat; conditions: C6, 16 h
Procedure: The tube formation assay was performed in 96-well plates pre-coated with 50 µL/well of Geltrex^TM (Thermofisher, Scientific, Waltham, MA, USA), and polymerized for 30 min at 37 °C. Briefly, 3 × 10^4 U87-MG, 1.5 × 10^4 U251, and 1 × 10^4 C6 cells/100µL/well were plated onto Geltrex^TM and monitored at 37 °C for the indicated times. The specific effectors were included at time 0. The formation of vascular-like structures by Geltrex^TM-plated U87-MG and U251-MG cells was monitored for 24 h, whereas C6 cells were tested for 16 h. The evaluation of the branching point number, defined as the intersection of at least 3 tubes [24], was performed using the Inverted Microscope DMI Leica 6000 for the U87-MG and U251-MG cells and the Inverted Microscope Axiovert 25 for the C6 cells. At the indicated times, the number of “branching points” was assessed in 4/5 random fields using the ImageJ 1.52a Software.
Figure 7 Vascular mimicry formation by C6 rat cells and inhibition by uPAcyclin. […] (B) After 16 h, the number of branching points was evaluated as described in the legend to Figure 5 and reported in the relative histogram (*** p-value < 0.001).

breast cancer cell lines = conditions: ref Belli et al. [25]; cited from earlier work
U87-MG cells = experiment: Wound healing assay, U87-MG; format: cell-based, human; conditions: for residual space, % of the initial wound: 24 h (untreated 15%)
Procedure: The wound healing assay or scratch test was performed as previously reported. Briefly, 6 × 10^3 U87-MG cells were seeded in multiwell-12 plates containing culture inserts for live cell analysis (Ibidi, Gmbh, Martinsried, Germany) and grown to confluence in DMEM/10% FBS for 24 h. After removing the inserts, the cells were pre-treated for 40 min at 37 °C with uPAcyclin or diluents at the indicated concentrations, and then incubated in DMEM/3% FBS for 24 h. The images were taken using the Inverted Microscope Leica DMI6000 DFC 402 (Leica Microsystems, Milan, Italy). A total of 10 × 10^4 C6 cells were grown to confluence in 12-well plates, in the presence of DMEM/10% FBS. Then, the cell monolayers were wounded with a yellow tip, pre-incubated with uPAcyclin (10 pM and 100 nM) or diluents, and incubated in DMEM/2.5% FBS for 16 h. The images were obtained using the Inverted Axiovert 25 Microscope, equipped with the Zen 3.3 Software. To quantitate cell migration, a rectangle covering the wound edges is drawn on the T0 image and is further applied to the single photograms of each sample. The average margin distance is measured at three points and the results are expressed as percentage wound width of the T0 distance, taken as 100%.
Figure 5 Wound healing assay of U87-MG and C6 cells, in the presence of uPAcyclin. (A) U87-MG cells were grown to confluence in multiwell-12 plates with inserts, pre-incubated with uPAcyclin (10 pM or 100 nM) or diluents for 40 min at 37 °C, and then exposed to 3% FBS, in the presence of uPAcyclin or diluents, as reported. Images were taken at time 0 (T0) and 24 h (T24) and representative images are shown (50× total magnification, scale bar: 250 µm). […] (C) For both U87-MG and C6, the wound width at time 0 is taken as 100% and the wound width at T24 or T16 is calculated as relative to that (* p-value < 0.05; ** p-value < 0.005; *** p-value < 0.001).

U138-MG cells = experiment: Boyden chamber migration (chemotaxis), U138-MG; format: cell-based, human; conditions: for migration, % of basal, average 2 expts: mean of 2 expts; for migration, % of basal, average expt 1: mean of expt 1; for migration, % of basal, average expt 2: mean of expt 2; for migration, % of basal, T-test list: single replicates of both expts
Procedure: The migration and invasion assays were performed using Boyden chambers and 8 µm pore size PVP-free filters coated with 50 µg/mL of collagen type VI (Sigma), as previously described. For the invasion assays, collagen-coated filters were further coated with 50 µg/mL Matrigel^TM (Sigma). Briefly, 11 × 10^4 U87-MG, 4 × 10^4 U251-MG, or 4 × 10^4 U138-MG/sample were pre-treated for 40 min at 37 °C with the indicated effectors. Then, the cells were allowed to migrate for 3 h or to invade for 5 h at 37 °C toward 5% FBS in DMEM/0.1% BSA. At the end of both assays, the cells on the lower filter surface were fixed, stained with haematoxylin, and counted under an optical microscope (Zeiss Axiophot, Carl Zeiss, Milan, Italy) at 20× magnification. The migration and invasion experiments were conducted in triplicate for U87-MG and in duplicate for U251-MG and U138-MG. The migrated or invaded cells were reported as percentage of basal migration or invasion in the presence of DMEM/0.1% BSA, taken as 100%, and analyzed as reported in Section 2.11.
Figure 3 Inhibition of U87-MG, U251-MG, and U138-MG GBM cellular migration by uPAcyclin. Quantitative analysis of U87-MG (A), U251-MG (B), and U138-MG (C) directional migration. A total of 11 × 10^4 U87-MG/sample or 4 × 10^4 U251-MG or U138-MG/sample were pre-treated for 40 min at 37 °C with uPAcyclin or S-peptide at the indicated concentrations, anti-αV polyclonal (anti-αV Pclonal) or monoclonal (anti-αV MoAb) antibody, or anti-GAPDH, and anti-α2 monoclonal antibody (anti-α2 MoAb), and then assayed in Boyden chambers at 37 °C, either for basal (BSA) or directional 5% FBS-dependent migration for 3 h at 37 °C. At the end of incubation, the filters were processed as described in Methods. Basal migration was taken as 100% and all values were calculated relative to that (* p-value < 0.05; ** p-value < 0.005; *** p-value < 0.001).

[1] = 1 nM, 5% FBS, 3 h, expt 1, duplicates
[2] = 1 nM, 5% FBS, 3 h, expt 2, duplicates
[3] = 100 nM, 5% FBS, 3 h, expt 1, duplicates
[4] = 100 nM, 5% FBS, 3 h, expt 2, duplicates

## Ac-K^1P[ESPPEELK^10]-NH2 (sidechain bridge or staple) [uPAcyclin]
C6 cells; 10 pM
  inhibition of branching point number: 40%
C6 cells; 100 nM
  inhibition of branching point number: 60%
Breast cancer cell lines
  migration and invasion inhibition: potent inhibitor of migration and invasion of breast cancer cell lines
U87-MG cells; 10 pM
  residual space, % of the initial wound: 30%
U87-MG cells; 100 nM
  residual space, % of the initial wound: 60%
U87-MG cells; abstract
  reduction of wound healing rate closure: 50%
U138-MG cells; 1 nM, U138-MG, 5% FBS, 3 h
  inhibition of migration: 70–80%
U138-MG cells; [1]
  migrated cells n°/field: 8 cells n°/field and 7 cells n°/field
  migration, % of basal: 114% and 100%
U138-MG cells; [2]
  migrated cells n°/field: 8 cells n°/field and 10 cells n°/field
  migration, % of basal: 100% and 125%
U138-MG cells; 1 nM, 5% FBS, 3 h
  migration, % of basal, average 2 expts: 110%
  migration, % of basal, average expt 1: 107%
  migration, % of basal, average expt 2: 113%
U138-MG cells; 1 nM
  migration, % of basal, T-test list: 114 and 100 and 125
U138-MG cells; 100 nM, U138-MG, 5% FBS, 3 h
  migration, in words: below background levels
U138-MG cells; [3]
  migrated cells n°/field: 7 cells n°/field and 5 cells n°/field
  migration, % of basal: 100% and 71%
U138-MG cells; [4]
  migrated cells n°/field: 6 cells n°/field and 7 cells n°/field
  migration, % of basal: 75% and 88%
U138-MG cells; 100 nM, 5% FBS, 3 h
  migration, % of basal, average 2 expts: 84%
  migration, % of basal, average expt 1: 86%
  migration, % of basal, average expt 2: 82%
U138-MG cells; 100 nM
  migration, % of basal, T-test list: 100 and 71 and 75 and 88
